Data as given in PubChem BioAssay AID2060495 (Molecular Pharmacology Branch, DTP, NCI, 2025).

Test system: 521955-158-R2-J5-PDC complex spheroid viability
Assay: Anticancer human tumor 521955-158-R2-J5-PDC patient-derived pancreatic carcinoma cell line growth inhibition [GQUAD]
Settings: for IC50: curve of first compound; for viability, T/C: stronger effect = lower value
Summary of the method: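 Multi-cell-type spheroids of tumor cells with HUVEC and mesenchymal stem cells, treated with drug combinations. Concentrations descend in half-log steps from near clinical Cmax, or from 10 microM where Cmax is unknown; viability read-out.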

[1] = second compound 0.0316 µM, first compound 0.0316 µM
[2] = second compound 0.0316 µM, first compound 0.1 µM
[3] = second compound 0.0316 µM, first compound 0.316 µM
[4] = second compound 0.0316 µM, first compound 1 µM
[5] = second compound 0.0316 µM, first compound 3.16 µM
[6] = second compound 0.0316 µM, first compound 10 µM
[7] = second compound 0.1 µM, first compound 0.0316 µM
[8] = second compound 0.1 µM, first compound 0.1 µM
[9] = second compound 0.1 µM, first compound 0.316 µM
[10] = second compound 0.1 µM, first compound 1 µM
[11] = second compound 0.1 µM, first compound 3.16 µM
[12] = second compound 0.1 µM, first compound 10 µM
[13] = second compound 0.316 µM, first compound 0.0316 µM
[14] = second compound 0.316 µM, first compound 0.1 µM
[15] = second compound 0.316 µM, first compound 0.316 µM
[16] = second compound 0.316 µM, first compound 1 µM
[17] = second compound 0.316 µM, first compound 3.16 µM
[18] = second compound 0.316 µM, first compound 10 µM
[19] = second compound 1 µM, first compound 0.0316 µM
[20] = second compound 1 µM, first compound 0.1 µM
[21] = second compound 1 µM, first compound 0.316 µM
[22] = second compound 1 µM, first compound 1 µM
[23] = second compound 1 µM, first compound 3.16 µM
[24] = second compound 1 µM, first compound 10 µM
[25] = second compound 3.16 µM, first compound 0.0316 µM
[26] = second compound 3.16 µM, first compound 0.1 µM
[27] = second compound 3.16 µM, first compound 0.316 µM
[28] = second compound 3.16 µM, first compound 1 µM
[29] = second compound 3.16 µM, first compound 3.16 µM
[30] = second compound 3.16 µM, first compound 10 µM
[31] = second compound 10 µM, first compound 0.0316 µM
[32] = second compound 10 µM, first compound 0.1 µM
[33] = second compound 10 µM, first compound 0.316 µM
[34] = second compound 10 µM, first compound 1 µM
[35] = second compound 10 µM, first compound 3.16 µM
[36] = second compound 10 µM, first compound 10 µM
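Note: spheroids exposed to agents for one week before reading.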
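Throughout, for viability, T/C: 100% = DMSO vehicle control viability.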

In the case of `COc1cc(C2c3cc4c(cc3C(OC3OC5COC(C)OC5C(O)C3O)C3COC(=O)C23)OCO4)cc(OC)c1O` (stereo unspecified) + Cc1cnc(CNC(=O)c2c(=O)c3ccc(N4CCCN(C)CC4)nc3n3c2sc2ccccc23)cn1, the IC50 (second compound 0.0316 µM) is reported as 0.241 µM, the IC50 (second compound 0.1 µM) is reported as 0.34 µM and the IC50 (second compound 0.316 µM) is reported as < 0.0316 µM. For the same compound, the IC50 (second compound 1 µM) was < 0.0316 µM, the IC50 (second compound 3.16 µM) was < 0.0316 µM and the IC50 (second compound 10 µM) was < 0.0316 µM. It also gave a viability, T/C [1] of 84.4%, a viability, T/C [2] of 70.8% and a viability, T/C [3] of 42.8%. For the same compound, the viability, T/C [4] was 23.2%, the viability, T/C [5] was 12.1% and the viability, T/C [6] was 9.69%. For the same compound, the viability, T/C [7] was 59.2%, the viability, T/C [8] was 55.3% and the viability, T/C [9] was 49.3%. For the same compound, the viability, T/C [10] was 37.8%, the viability, T/C [11] was 16% and the viability, T/C [12] was 11%. For the same compound, the viability, T/C [13] was 45.2%, the viability, T/C [14] was 42.2% and the viability, T/C [15] was 36.5%. The viability, T/C [16] was 19.8%, the viability, T/C [17] was 14% and the viability, T/C [18] was 12.1%. It also gave a viability, T/C [19] of 23.2%, a viability, T/C [20] of 28.4% and a viability, T/C [21] of 19.2%. For the same compound, the viability, T/C [22] was 17.4%, the viability, T/C [23] was 10.3% and the viability, T/C [24] was 10.2%. For the same compound, the viability, T/C [25] was 19.2%, the viability, T/C [26] was 18% and the viability, T/C [27] was 19.6%. For the same compound, the viability, T/C [28] was 17%, the viability, T/C [29] was 6.27% and the viability, T/C [30] was 8.61%. For the same compound, the viability, T/C [31] was 15.6%, the viability, T/C [32] was 17.8% and the viability, T/C [33] was 18.8%. The viability, T/C [34] was 16.7%, the viability, T/C [35] was 10.2% and the viability, T/C [36] was 8.93%.
For `Nc1ccn(C2OC(CO)C(O)C2(F)F)c(=O)n1` (stereo unspecified) + Cc1cnc(CNC(=O)c2c(=O)c3ccc(N4CCCN(C)CC4)nc3n3c2sc2ccccc23)cn1, the IC50 (second compound 0.0316 µM) was 0.159 µM, the IC50 (second compound 0.1 µM) was 0.0857 µM and the IC50 (second compound 0.316 µM) was < 0.0316 µM. For the same compound, the IC50 (second compound 1 µM) was < 0.0316 µM, the IC50 (second compound 3.16 µM) was < 0.0316 µM and the IC50 (second compound 10 µM) was < 0.0316 µM. It also gave a viability, T/C [1] of 67.4%, a viability, T/C [2] of 63.6% and a viability, T/C [3] of 30.6%. The viability, T/C [4] was 12.9%, the viability, T/C [5] was 8.38% and the viability, T/C [6] was 8.43%. The viability, T/C [7] was 57.4%, the viability, T/C [8] was 51.2% and the viability, T/C [9] was 29%. For the same compound, the viability, T/C [10] was 20.9%, the viability, T/C [11] was 7.8% and the viability, T/C [12] was 7.55%. It also gave a viability, T/C [13] of 36%, a viability, T/C [14] of 27.7% and a viability, T/C [15] of 20.9%. The viability, T/C [16] was 12.8%, the viability, T/C [17] was 9.07% and the viability, T/C [18] was 7.49%. The viability, T/C [19] was 20.2%, the viability, T/C [20] was 19.9% and the viability, T/C [21] was 15.2%. The viability, T/C [22] was 9.52%, the viability, T/C [23] was 9.75% and the viability, T/C [24] was 8.51%. The viability, T/C [25] was 16%, the viability, T/C [26] was 17.8% and the viability, T/C [27] was 15.9%. For the same compound, the viability, T/C [28] was 8.29%, the viability, T/C [29] was 4.92% and the viability, T/C [30] was 2.37%. For the same compound, the viability, T/C [31] was 17%, the viability, T/C [32] was 15.7% and the viability, T/C [33] was 15.1%. It also gave a viability, T/C [34] of 6.25%, a viability, T/C [35] of 4.12% and a viability, T/C [36] of 5.49%.
`O=c1[nH]cc(F)c(=O)[nH]1` + Cc1cnc(CNC(=O)c2c(=O)c3ccc(N4CCCN(C)CC4)nc3n3c2sc2ccccc23)cn1 was tested, and the IC50 (second compound 0.0316 µM) was 1.19 µM, the IC50 (second compound 0.1 µM) was 1.54 µM and the IC50 (second compound 0.316 µM) was < 0.0316 µM. For the same compound, the IC50 (second compound 1 µM) was < 0.0316 µM, the IC50 (second compound 3.16 µM) was < 0.0316 µM and the IC50 (second compound 10 µM) was < 0.0316 µM. The viability, T/C [1] was 88.7%, the viability, T/C [2] was 70.5% and the viability, T/C [3] was 76.8%. The viability, T/C [4] was 51.6%, the viability, T/C [5] was 31.6% and the viability, T/C [6] was 16.7%. It also gave a viability, T/C [7] of 65.2%, a viability, T/C [8] of 56.2% and a viability, T/C [9] of 56.5%. The viability, T/C [10] was 62.2%, the viability, T/C [11] was 33.4% and the viability, T/C [12] was 22.4%. It also gave a viability, T/C [13] of 36.7%, a viability, T/C [14] of 56.3% and a viability, T/C [15] of 30.3%. The viability, T/C [16] was 31%, the viability, T/C [17] was 20.2% and the viability, T/C [18] was 17.8%. For the same compound, the viability, T/C [19] was 23.2%, the viability, T/C [20] was 22.5% and the viability, T/C [21] was 20.1%. It also gave a viability, T/C [22] of 16.6%, a viability, T/C [23] of 17.8% and a viability, T/C [24] of 14.1%. It also gave a viability, T/C [25] of 18.1%, a viability, T/C [26] of 19.5% and a viability, T/C [27] of 17.8%. For the same compound, the viability, T/C [28] was 19.1%, the viability, T/C [29] was 17% and the viability, T/C [30] was 11.7%. The viability, T/C [31] was 18.7%, the viability, T/C [32] was 21.7% and the viability, T/C [33] was 17.3%. The viability, T/C [34] was 14.2%, the viability, T/C [35] was 15.5% and the viability, T/C [36] was 12.1%.
